Assay: mn = molality of the nth substance listed, in mol/kg
Details: 101 kPa, Liquid; for speed of sound: Pulse-echo method

CCCC[P+](CCCC)(CCCC)CCCC.[Br-] [tetrabutylphosphonium bromide] + CCCO
Details | mass density, 288.15 K [kg/m3] | mass density, 293.15 K [kg/m3] | mass density, 298.15 K [kg/m3] | mass density, 303.15 K [kg/m3] | mass density, 308.15 K [kg/m3] | mass density, 313.15 K [kg/m3] | mass density, 323.15 K [kg/m3] | speed of sound, 298.15 K [m/s]
m1 = 0.008229 | 808.063 | 804.08 | 800.075 | 796.04 | 791.98 | 787.867 | 779.506 | –
m1 = 0.01006 | 808.2 | 804.217 | 800.212 | 796.179 | 792.12 | 788.009 | 779.649 | 1205.6
m1 = 0.01526 | 808.58 | 804.599 | 800.599 | 796.569 | 792.51 | 788.405 | 780.051 | –
m1 = 0.02043 | 808.96 | 804.977 | 800.981 | 796.957 | 792.896 | 788.788 | 780.443 | –
m1 = 0.02524 | 809.318 | 805.33 | 801.34 | 797.315 | 793.259 | 789.158 | 780.808 | 1206.6
m1 = 0.03024 | 809.68 | 805.698 | 801.705 | 797.688 | 793.626 | 789.53 | 781.191 | –
m1 = 0.03749 | 810.212 | 806.23 | 802.24 | 798.225 | 794.174 | 790.075 | 781.741 | –
m1 = 0.05294 | 811.322 | 807.354 | 803.369 | 799.354 | 795.307 | 791.221 | 782.905 | 1208.6
m1 = 0.06813 | 812.403 | 808.443 | 804.463 | 800.458 | 796.411 | 792.34 | 784.043 | 1209.5
m1 = 0.0867 | 813.75 | 809.793 | 805.818 | 801.819 | 797.792 | 793.72 | 785.44 | 1210.8
m1 = 0.1076 | 815.247 | 811.298 | 807.331 | 803.338 | 799.313 | 795.248 | 786.995 | 1212.2
m1 = 0.1375 | 817.423 | 813.485 | 809.531 | 805.541 | 801.524 | 797.479 | 789.244 | 1213.9
m1 = 0.1743 | 820.087 | 816.159 | 812.214 | 808.243 | 804.242 | 800.208 | 792.006 | 1216.2
m1 = 0.2115 | 822.781 | 818.864 | 814.928 | 810.97 | 806.982 | 802.96 | 794.787 | 1218.4
m1 = 0.2447 | 825.209 | 821.3 | 817.377 | 813.431 | 809.45 | 805.445 | 797.302 | 1220.7
m1 = 0.2873 | 828.335 | 824.437 | 820.523 | 816.588 | 812.63 | 808.638 | 800.526 | 1223.5
m1 = 0.3248 | 831.089 | 827.205 | 823.305 | 819.382 | 815.432 | 811.451 | 803.369 | 1225.7

— the NIST ThermoML archive (doi:10.1021/je900888e)
